Read-outs that look alike come from different tables or passages of the source.
Experiments:
Mm (BAA-535) [1] = assay: BDQ potentiation MIC99 microbroth assay, Mm; type: cell-based, Mycobacterium marinum; settings: 6-azasteroid fixed at 20 μM; relative to BDQ MIC99 without azasteroid
HepG2 cells = assay: Cytotoxicity assay (Alamar Blue), HepG2; type: cell-based, human; settings: read-out: Mammalian Cell IC50, HepG2
Mm = assay: MIC of 6-azasteroid alone, Mm; type: cell-based, Mycobacterium marinum; settings: (micromolar)
Mtb (CDC1551) [2] = assay: BDQ potentiation MIC99 microbroth assay, Mtb; type: cell-based, Mycobacterium tuberculosis; settings: 6-azasteroid fixed at 20 μM; relative to BDQ MIC99 without azasteroid
THP-1 cells = assay: Cytotoxicity assay (Alamar Blue), THP-1; type: cell-based; settings: read-out: Mammalian Cell IC50, THP1
Mtb = assay: MIC of 6-azasteroid alone, Mtb; type: cell-based, Mycobacterium tuberculosis; settings: (MIC99 reported as micromolar)
[3] = molecular target: T1, recombinant Mtb 3β-Hsd (Rv1106c) (Mycobacterium tuberculosis, UniProt P9WQP7); type: biochemical; settings: 50 μM 6-azasteroid
T1 construct: made in house

Mtb (CDC1551) [4] = tested on: Mtb (CDC1551); parameters: method as in PMID 31012313; settings: normoxic conditions; cited from earlier work
[5] = tested on: mammalian cells (HepG2 and THP-1); assay: Cytotoxicity in mammalian cells, cell line not given; settings: read-out: IC50 in mammalian cells
Mtb CDC1551 = assay: Intracellular ATP levels under BDQ cotreatment; settings: 96 h
Mtb and Mm = assay: BDQ potentiation MIC99 assay, species not given; type: cell-based; settings: 6-azasteroid at 20 μM; species not stated
Mm (BAA-535) [6] = tested on: Mm (BAA-535); parameters: method as in PMID 31012313; settings: normoxic conditions; cited from earlier work
Mtb (CDC1551) [7] = assay: ROS sensitivity (CellROX Green) with or without cumene hydroperoxide; type: cell-based, Mycobacterium tuberculosis

T1 sequence (P9WQP7 whole entry): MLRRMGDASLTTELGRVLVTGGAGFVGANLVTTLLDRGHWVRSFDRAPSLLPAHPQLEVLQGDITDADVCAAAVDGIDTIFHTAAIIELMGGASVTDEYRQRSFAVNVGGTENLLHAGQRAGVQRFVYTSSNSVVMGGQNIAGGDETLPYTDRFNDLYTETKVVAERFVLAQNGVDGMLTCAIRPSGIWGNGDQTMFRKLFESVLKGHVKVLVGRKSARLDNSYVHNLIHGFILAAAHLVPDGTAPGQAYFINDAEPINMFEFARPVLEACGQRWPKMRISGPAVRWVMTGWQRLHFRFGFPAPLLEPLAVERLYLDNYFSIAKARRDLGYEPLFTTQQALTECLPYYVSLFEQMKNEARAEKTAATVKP

SMILES	Fold ∆ of BDQ MIC, Mm (Mm (BAA-535) [1]) [fold]	IC50 (HepG2 cells; 72 h) [µM]	MIC Alone (Mm) (Mm) [µM]	Fold ∆ of BDQ MIC, Mtb (Mtb (CDC1551) [2]) [fold]	Mtb MIC Alone (Mtb) [µM]	also measured
CCCN1CC2C3CCC(C(=O)Nc4cc(C(F)(F)F)ccc4C(C)(C)C)[C@@]3(C)CCC2[C@@]2(C)CCC(=O)C=C12 (stereo partly shown) [compound 6]	3	71	> 20	–	–	–
C[C@]12CCC3C(CNC4=CC(=O)CC[C@@]43C)C1CCC2C(=O)Nc1ccc(C(=O)c2ccccc2)cc1 (stereo partly shown) [compound 43]	2	> 100	> 20	8	–	–
CCCN1CC2C3CCC(C(=O)NC(c4ccc(OC(F)(F)F)cc4)c4ccc(OC(F)(F)F)cc4)[C@@]3(C)CCC2[C@@]2(C)CCC(=O)C=C12 (stereo partly shown) [compound 36]	1.6	–	–	–	> 40	IC50 (THP-1 cells; 72 h): > 100 µM
C[C@]12CCC3C(CN(CCCF)C4CC(=O)CC[C@]34C)C1CCC2C(=O)NC(c1ccc(OC(F)(F)F)cc1)c1ccc(OC(F)(F)F)cc1 (stereo partly shown) [compound 41]	5	> 100	> 20	–	–	–
C[C@]12CCC3C(CN(CCC(F)(F)F)C4CC(=O)CC[C@]34C)C1CCC2C(=O)NC(c1ccc(OC(F)(F)F)cc1)c1ccc(OC(F)(F)F)cc1 (stereo partly shown) [compound 42]	1	> 100	> 20	–	–	–
CCCN1CC2C3CCC(C(=O)NC(c4ccc(F)cc4)c4ccc(C(F)(F)F)cc4)[C@@]3(C)CCC2[C@@]2(C)CCC(=O)C=C12 (stereo partly shown) [compound 16]	–	–	–	64	> 20	inhibition of 3β-Hsd activity [3]: greater than 50%
C[C@]12CCC3C(CN(CCC(F)(F)F)C4=CC(=O)CC[C@@]43C)C1CCC2C(=O)Nc1cc(C(F)(F)F)ccc1C(F)(F)F (stereo partly shown) [compound 9]	4	> 100	> 20	–	–	–
C[C@]12CCC3C(CNC4=CC(=O)CC[C@@]43C)C1CCC2C(=O)NC(c1ccc(F)cc1)c1ccc(F)cc1 (stereo partly shown) [compound 12]	7	31.4	–	32	31	IC50 (THP-1 cells; 72 h): 24.2 µM
C[C@]12CCC3C(CN(CCCF)C4=CC(=O)CC[C@@]43C)C1CCC2C(=O)Nc1cc(C(F)(F)F)ccc1C(F)(F)F (stereo partly shown) [compound 8]	7	> 100	> 20	–	–	–
CCCN1CC2C3CCC(C(=O)Nc4cc(C(C)(C)C)ccc4C(C)(C)C)[C@@]3(C)CCC2[C@@]2(C)CCC(=O)C=C12 (stereo partly shown) [compound 2]	9	–	–	8	37	potentiation of the activity of isoniazid and BDQ, Mtb (Mtb (CDC1551) [4]): 8 fold; IC50 [5]: 25 µM; cellular ATP concentration in combination with BDQ, relative to BDQ treatment (Mtb CDC1551; 6-azasteroid 5 and 20 μM plus BDQ): less than 50%; ATP production, 6-azasteroid alone (Mtb CDC1551; 20 or 5 μM, no BDQ): not greatly affected; IC50 (HepG2 cells; Homo sapiens, HepG2, 72 h): 21 µM; IC50 (THP-1 cells; Homo sapiens, THP-1, 72 h): 24 µM; reduction in BDQ MIC99 (Mtb and Mm): greater than 8 fold; potentiation of the activity of isoniazid and BDQ, Mm (Mm (BAA-535) [6]): 8 fold; intracellular oxidants after exogenous CHP, 6-azasteroid pretreatment (Mtb (CDC1551) [7]; 20 μM pretreatment 6 h, then 5 mM CHP 30 min, versus not pretreated): greater accumulation of intracellular oxidants; effect on intracellular ROS levels, 6-azasteroid alone (Mtb (CDC1551) [7]; 20 μM, 6 h, no peroxide): negligible effect

— publication PMC10580313, “A Chemoproteomic Approach to Elucidate the Mechanism of Action of 6-Azasteroids with Unique Activity in Mycobacteria” (ACS Infectious Diseases, 2023)
